What was measured:
[1] = system: SNU601 cells (gastric, Rad51 methylated promoter); experiment: 7 days nuclear count viability, combination screen; format: cell-based; conditions: SNU601, 7 days nuclear count viability; Compound A and Niraparib combination
DLD1 BRCA2del CDX model = experiment: Efficacy study in DLD1 BRCA2-deleted CDX model (FIG. 7); format: in vivo, mice; conditions: for mean TGI / TGI: day 24
Source text: DLD1 BRCA2^del Cells were expanded in RPMI with 10% fetal bovine serum. Mean TV at dosing start was approximately 148 mm^3, with seven mice randomized to each treatment group. The study consisted of eight treatment groups. The treatment groups on day 24 were compared to the control group on day 24 to calculate the TGI. […] All treatments were discontinued on day 54, and the tumor regrowth as assessed until day 122.

Compound: COc1nnc(NC(=O)c2cnc(C)cc2-c2cc(Cl)ncc2OC)s1 [Compound A, 2′-chloro-5′-methoxy-N-(5-methoxy-1,3,4-thiadiazol-2-yl)-6-methyl-(4,4′-bipyridine)-3-carboxamide]
- Comb Benefit [1]: Yes
- mean TGI (DLD1 BRCA2del CDX model; Compound A 3 mg/kg + 35 mg/kg QD Niraparib): 112%
- TGI (DLD1 BRCA2del CDX model; Compound A 3 mg/kg BID alone): −50%
- mean TGI (DLD1 BRCA2del CDX model; Compound A 10 mg/kg + 35 mg/kg QD Niraparib): 111%
- TGI (DLD1 BRCA2del CDX model; Compound A 10 mg/kg BID alone): −64%
- mean TGI (DLD1 BRCA2del CDX model; Compound A 30 mg/kg + 35 mg/kg QD Niraparib): 117%
- TGI (DLD1 BRCA2del CDX model; Compound A 30 mg/kg BID alone): −12%
- tumor regrowth after treatment discontinued (DLD1 BRCA2del CDX model; Compound A with Niraparib combination groups, treatment stopped day 54, assessed until day 122): did not progress off treatment

From US12398131B2, “Thiadiazolyl derivatives as DNA polymerase theta inhibitors and uses thereof” (GlaxoSmithKline Intellectual Property (No.4) Limited, priority 2022, dated 2025)
